Data from patent publication US20120088661A1, “FUNGICIDAL MIXTURES” (BASF SE, priority 2009, published 2012).
Read-outs that look alike come from different tables or passages of the source.

What was measured:
Botrytis cinerea [1] = assay: Use Example M2: activity against the gray mold pathogen Botrytis cinerea in the microtiter test (Botrci); format: cell-based
Septoria glycines = assay: Use Example M8: activity against Septoria glycines in the microtiter test (Septgl); format: cell-based
Colleotrichum truncatum = assay: Use Example M9: activity against Colleotrichum truncatum in the microtiter test (Colltr); format: cell-based
Phytophthora infestans = assay: microbe, parasite or virus in culture; format: cell-based; conditions: for inhibition of growth at 0.016 ppm: read-out: Observed effect, 0.016 ppm; for inhibition of growth at 1 ppm: read-out: Observed effect, 1 ppm
Septoria tritici = assay: Use Example G5: greenhouse, protective activity against Septoria leaf blotch of wheat caused by Septoria tritici (Septtr P1); format: in vivo, Septoria tritici on wheat seedlings
Protocol: (§1) The active compounds were prepared separately or jointly as a stock solution with 25 mg of active compound which was made up to 10 ml using a mixture of acetone and/or DMSO and the emulsifier Wettol EM 31 (wetting agent having emulsifying and dispersing action based on ethoxylated alkylphenols) in a volume ratio of solvent:emulsifier of 99:1. The mixture was then made up with water to 100 ml. This stock solution was diluted with the solvents/emulsifier/water mixture described to give the active compound concentrations stated below. Alternatively, the active compounds were used as commercial finished formulation and diluted with water to the stated active compound concentration. The active compound orysastrobin was used as a commercially available formulation, and diluted with water with reference to the active compound.
(§2) The visually determined values for the percentage of infected leaf area were initially converted into a mean value and then converted into efficacies in % of the untreated control. An efficacy of 0 means the same degree of infection as in the untreated control, an efficacy of 100 means 0% infection. The expected efficacies for the active compound combinations were determined using Colby's formula (Colby, S. R. “Calculating synergistic and antagonistic responses of herbicide combinations”, Weeds, 15, pp. 20-22, 1967) and compared to the observed efficacies.
Leaves of potted wheat seedlings were sprayed to run off point with an aqueous suspension having the active compound concentration stated below. 24 hours after the spray coating had dried on, they were inoculated with an aqueous spore suspension of Septoria tritici. The test plants were then placed in a greenhouse at temperatures between 18 and 22° C. and a relative atmospheric humidity close to 100% for four days and then at temperatures between 18 and 22° C. and an atmospheric humidity of about 70%. After 21 days, the extent of the development of the disease was determined visually in % infection of the total leaf area.

Botrytis cinerea [2] = assay: Use Example G2: greenhouse, activity against grey mold on bell pepper leaves caused by Botrytis cinerea, 1 day protective application (Botrci P1); format: in vivo, Botrytis cinerea on bell pepper seedlings
Protocol: as §1, §2
Bell pepper seedlings were, after 2-3 leaves were well developed, sprayed to run off point with an aqueous suspension having the active compound concentrations stated below. The next day, the treated plants were inoculated with a spore suspension of Botrytis cinerea in a 2% biomalt solution. The test plants were then placed in a dark climatized chamber at 22 to 24° C. and high atmospheric humidity. After 5 days, the extent of the fungal infection on the leaves could be determined visually in %.

Puccinia recondita = assay: Use Example G3: greenhouse, protective activity against Puccinia recondita on wheat (brown rust of wheat) (Puccrt P1); format: in vivo, Puccinia recondita on wheat seedlings
Protocol: as §1, with “The active compound orysastrobin was used as a commercially available formulation, and diluted with water with reference to the active compound.” left out
The visually determined values for the percentage of infected leaf area were initially converted into a mean value and then converted into efficacies in % of the untreated control. […] The expected efficacies for the active compound combinations were determined using Colby's formula (Colby, S. R. “Calculating synergistic and antagonistic responses of herbicide combinations”, Weeds, 15, pp. 20-22, 1967) and compared to the observed efficacies.
Leaves of potted wheat seedlings were sprayed to run off point with an aqueous suspension having the active compound concentration stated below. […] The extent of rust fungus development on the leaves was then determined visually.

Phakopsora pachyrhizi = assay: Use Example G4: greenhouse, curative activity against soybean rust caused by Phakopsora pachyrhizi (Phakpa K4); format: in vivo, Phakopsora pachyrhizi on soybean seedlings
Protocol: as §1, §2
Leaves of potted soybean seedlings were inoculated with a spore suspension of soybean rust (Phakpsora pachyrhizi). The pots were then placed in a chamber of high atmospheric humidity (90 to 95%) and 20 to 24° C. for 24 hours. During this time, the spores germinated and the germ tubes penetrated into the leaf tissue. The infected plants were then cultivated further in a greenhouse at temperatures between 23 and 27° C. and 60 to 80% relative atmospheric humidity. After three days, the plants were sprayed to run off point with the active compound solution described above at the active compound concentration stated below. After the spray coating had dried on, the test plants were cultivated in a greenhouse at temperatures between 23 and 27° C. and 60 to 80% relative atmospheric humidity for a further 10 days. The extent of the rust fungus development on the leaves was then determined visually in %.

Alternaria solani = format: in vivo, Alternaria solani on tomato plants; conditions: 16 ppm
[3] = Septoria glycines, 0.063 ppm, read-out: Observed effect
[4] = Septoria glycines, 0.25 ppm, read-out: Observed effect
[5] = Septoria glycines, 0.016 ppm, read-out: Observed effect
[6] = Septoria glycines, read-out: Observed effect
[7] = Septoria glycines, 1 ppm, read-out: Observed effect

“1-[trans-2-(2,4-difluorophenyl)-3-(2-fluorophenyl)oxiranylmethyl]-5-methylsulfanyl-1H-[1,2,4]triazole [Example I-6]” was tested, and the Observed effect (Botrytis cinerea [1]; 4 ppm) was 9%.

“2-[trans-2-(3,4-difluorophenyl)-3-(2-trifluoromethylphenyl)oxiranylmethyl]-2,4-dihydro-[1,2,4]triazole-3-thione [Example I-4]” gave an Observed effect (Septoria glycines; 16 ppm) of 5%, an Observed effect (Septoria glycines; 63 ppm) of 23% and an Observed effect (Colleotrichum truncatum; 63 ppm) of 26%. It also gave an Observed effect (Phytophthora infestans; 63 ppm) of 31%.

In the case of “2-[trans-3-(2-chlorophenyl)-2-(2,4-difluorophenyl)oxiranylmethyl]-2,4-dihydro-[1,2,4]triazole-3-thione [Example I-1]”, the Observed effect (Septoria glycines; 16 ppm) is reported as 30%, the Observed effect (Septoria glycines; 63 ppm) is reported as 61% and the Observed effect (Septoria tritici; 4 ppm) is reported as 41%. For the same molecule, the Observed effect (Colleotrichum truncatum; 1 ppm) was 5%, the Observed effect (Colleotrichum truncatum; 16 ppm) was 6% and the Observed effect (Colleotrichum truncatum; 63 ppm) was 30%. It also gave an Observed effect (Botrytis cinerea [2]; 4 ppm) of 2%, an Observed effect (Phytophthora infestans; 1 ppm) of 3% and an Observed effect (Phytophthora infestans; 16 ppm) of 14%. The Observed effect (Phytophthora infestans; 63 ppm) was 53%.

“2-[trans-3-(2-chlorophenyl)-2-(3,4-difluorophenyl)oxiranylmethyl]-2H-[1,2,4]triazole-3-thiol [Example I-3]” was tested, and the Observed effect (Botrytis cinerea [1]; 4 ppm) was 8%, the Observed effect (Botrytis cinerea [1]; 63 ppm) was 25% and the Observed effect (Phytophthora infestans; 63 ppm) was 31%.

For `Fc1ccc([C@]2(Cn3cncn3)O[C@H]2c2ccccc2Cl)cc1` (racemic) [II-1, epoxiconazole], the inhibition of growth at […] (Septoria glycines; [3]) was 2%.

`Cc1ccccc1[C@@H]1O[C@]1(Cn1nc[nH]c1=S)c1ccc(F)c(F)c1` (relative stereo) [Example I-2, 2-[trans-2-(3,4-difluorophenyl)-3-o-tolyloxiranylmethyl]-2,4-dihydro-[1,2,4]triazole-3-thione] showed an Observed effect (Septoria glycines; 63 ppm) of 40% and an Observed effect (Colleotrichum truncatum; 63 ppm) of 38%.

For `CSc1ncnn1C[C@]1(c2ccc(F)c(F)c2)O[C@H]1c1ccccc1Cl` (relative stereo) [Example I-5, 1-[trans-3-(2-chlorophenyl)-2-(3,4-difluorophenyl)oxiranylmethyl]-5-methylsulfanyl-1H-[1,2,4]triazole], the Observed effect (Botrytis cinerea [1]; 16 ppm) was 9%.

In the case of `CSc1ncnn1C[C@]1(c2ccc(F)cc2F)O[C@H]1c1ccccc1Cl` (relative stereo) [Example I-7, 1-[trans-3-(2-chlorophenyl)-2-(2,4-difluorophenyl)oxiranylmethyl]-5-methylsulfanyl-1H-[1,2,4]triazole], the Observed effect (Botrytis cinerea [1]; 16 ppm) is reported as 25%.

`N#CSc1ncnn1C[C@]1(c2ccc(F)cc2F)O[C@H]1c1ccccc1Cl` (relative stereo) [Example I-8, 1-[trans-3-(2-chlorophenyl)-2-(2,4-difluorophenyl)oxiranylmethyl]-5-thiocyanato-1H-[1,2,4]triazole] was tested, and the Observed effect (Botrytis cinerea [1]; 16 ppm) was 19% and the Observed effect (Phytophthora infestans; 4 ppm) was 7%.

In the case of `CC1(C)CCC(Cc2ccc(Cl)cc2)C1(O)Cn1cncn1` (stereo not drawn) [II-2, metconazole], the inhibition of growth at […] (Septoria glycines; [4]) is reported as 19%.

For `CC(C)(C)C(O)(CCc1ccc(Cl)cc1)Cn1cncn1` (stereo not drawn) [II-3, tebuconazole], the Observed effect (Botrytis cinerea [2]; 1 ppm) was 0%.

Molecule `CO/N=C(/C(=O)OC)c1ccccc1COc1ccccc1C` [II-8, kresoxim-methyl] has an Observed effect (Colleotrichum truncatum; 1 ppm) of 27% and an Observed effect (Colleotrichum truncatum; 4 ppm) of 37%.

In the case of `COC(=O)N(OC)c1ccccc1COc1ccn(-c2ccc(Cl)cc2)n1` [II-9, pyraclostrobin], the inhibition of growth at 0.016 ppm (Septoria glycines; [5]) is reported as 69%, the Observed effect (Colleotrichum truncatum; 0.016 ppm) is reported as 7% and the Observed effect (Botrytis cinerea [1]; 0.016 ppm) is reported as 8%. The inhibition of growth at 0.016 ppm (Phytophthora infestans; Phytophthora infestans) was 13%.

With `CNC(=O)/C(=N/OC)c1ccccc1CO/N=C(C)/C(=N/OC)C(/C)=N/OC` [II-10, orysastrobin] the Observed effect (Colleotrichum truncatum; 4 ppm) was 29%, the Observed effect (Botrytis cinerea [1]; 1 ppm) was 13% and the Observed effect (Phytophthora infestans; 1 ppm) was 22%.

`COCC(=O)N(c1c(C)cccc1C)C(C)C(=O)OC` (stereo not drawn) [II-14, metalaxyl] showed an inhibition of growth at 4 ppm (Septoria glycines; Septoria glycines, 4 ppm, read-out: Observed effect) of 18%.

`CC(Cc1ccc(C(C)(C)C)cc1)CN1C[C@@H](C)O[C@@H](C)C1` (stereo partly drawn) [II-15, fenpropimorph] gave an inhibition of growth at 0.004 ppm (Septoria glycines; [6]) of 1%, an inhibition of growth at […] (Septoria glycines; [4]) of 71% and an inhibition of growth at 1 ppm (Phytophthora infestans; Phytophthora infestans) of 26%.

With `CC(C)NC(=O)N1CC(=O)N(c2cc(Cl)cc(Cl)c2)C1=O` [II-17, iprodione] the inhibition of growth at 1 ppm (Septoria glycines; [7]) was 0%.

Work on `N#Cc1c(Cl)c(Cl)c(Cl)c(C#N)c1Cl` [II-21, chlorothalonil] yielded an inhibition of growth at […] (Septoria glycines; [3]) of 6%, an Observed effect (Septoria tritici; 4 ppm) of 0% and an Observed effect (Botrytis cinerea [1]; 1 ppm) of 40%.

In the case of `O=C(Nc1ccccc1-c1ccc(Cl)cc1)c1cccnc1Cl` [II-24, boscalid], the Observed effect (Puccinia recondita; 1 ppm) is reported as 13%, the inhibition of growth at 0.016 ppm (Septoria glycines; [5]) is reported as 10% and the inhibition of growth at 0.04 ppm (Septoria glycines; Septoria glycines, 0.04 ppm, read-out: Observed effect) is reported as 9%. For the same molecule, the inhibition of growth at 16 ppm (Phytophthora infestans; Phytophthora infestans, read-out: Observed effect, 16 ppm) was 20%.

`Cc1ccc(C(C)NC(=O)[C@@H](NC(=O)OC(C)C)C(C)C)cc1` (stereo partly drawn) [II-35, iprovalicarb] gave an Observed effect (Septoria glycines; 1 ppm) of 3%.

Molecule `Cc1cc(C2CC2)nc(Nc2ccccc2)n1` [II-36, cyprodinil] has an Observed effect (Septoria tritici; 4 ppm) of 0%.

Work on `N#Cc1c[nH]cc1-c1cccc2c1OC(F)(F)O2` [II-38, fludioxonil] yielded an inhibition of growth at 1 ppm (Phytophthora infestans; Phytophthora infestans) of 27%.

`O=[N+]([O-])c1cc(C(F)(F)F)c(Cl)c([N+](=O)[O-])c1Nc1ncc(C(F)(F)F)cc1Cl` [II-40, fluazinam] showed an inhibition of growth at 0.016 ppm (Septoria glycines; [5]) of 7%, an inhibition of growth at 1 ppm (Septoria glycines; [7]) of 24% and an inhibition of growth at 1 ppm (Phytophthora infestans; Phytophthora infestans) of 24%.

Work on `CCCN(CCOc1c(Cl)cc(Cl)cc1Cl)C(=O)n1ccnc1` [II-46, prochloraz] yielded an Observed effect (Phakopsora pachyrhizi; 1 ppm) of 7%, an inhibition of growth at 0.001 ppm (Septoria glycines; [6]) of 11% and an Observed effect (Septoria tritici; 1 ppm) of 0%.

`N#Cc1sc2c(=O)c3ccccc3c(=O)c=2sc1C#N` [II-47, dithianon] showed an inhibition of growth at 0.004 ppm (Septoria glycines; [6]) of 3%, an inhibition of growth at 0.016 ppm (Septoria glycines; [5]) of 37% and an Observed effect (Colleotrichum truncatum; 0.016 ppm) of 3%.

Work on `CO/C=C(/C(=O)OC)c1ccccc1Oc1cc(Oc2ccccc2C#N)ncn1` [II-49, azoxystrobin] yielded an Observed effect (Septoria glycines; 0.016 ppm) of 20%.

`CO/N=C(/C1=NOCCO1)c1ccccc1Oc1ncnc(Oc2ccccc2Cl)c1F` [II-57, fluoxastrobin] showed an Observed effect (Phakopsora pachyrhizi; 1 ppm) of 15%.

With `COC(=O)C(C)N(C(=O)Cc1ccccc1)c1c(C)cccc1C` (stereo not drawn) [benalaxyl] the Observed effect (Septoria tritici; 250 ppm) was 0% and the Observed effect (Alternaria solani) was 2%.

Molecule `O=C1C2CC=CCC2C(=O)N1SC(Cl)(Cl)Cl` (stereo not drawn) [captan] has an Observed effect (Phakopsora pachyrhizi; 1 ppm) of 0%, an Observed effect (Phakopsora pachyrhizi; 4 ppm) of 0% and an Observed effect (Septoria tritici; 16 ppm) of 0%.

Work on `CCNC(=O)NC(=O)/C(C#N)=N/OC` [cymoxanil] yielded an inhibition of growth at 16 ppm (Septoria glycines; Septoria glycines, 16 ppm, read-out: Observed effect) of 27%.

For `OC(c1ccc(Cl)cc1)(c1cncnc1)c1ccccc1Cl` (stereo not drawn) [fenarimol], the inhibition of growth at 0.016 ppm (Septoria glycines; [5]) was 11%, the inhibition of growth at 1 ppm (Septoria glycines; [7]) was 39% and the inhibition of growth at 0.016 ppm (Phytophthora infestans; Phytophthora infestans) was 5%. The inhibition of growth at 1 ppm (Phytophthora infestans; Phytophthora infestans) was 28%.

Work on `COc1ccc(/C(=C\C(=O)N2CCOCC2)c2ccc(F)cc2)cc1OC` [flumorph] yielded an Observed effect (Septoria glycines; 16 ppm) of 21%.

For `CC(C)NC(=O)N1CC(=O)N(c2cc(Cl)cc(Cl)c2)C1=O` [iprodion], the Observed effect (Colleotrichum truncatum; 1 ppm) was 9%.

Work on mancozeb [II-18] yielded an Observed effect (Puccinia recondita; 4 ppm) of 5%, an Observed effect (Phakopsora pachyrhizi; 16 ppm) of 7% and an Observed effect (Phakopsora pachyrhizi; 63 ppm) of 0%. For the same molecule, the Observed effect (Septoria tritici; 16 ppm) was 3%, the Observed effect (Septoria tritici; 63 ppm) was 18% and the Observed effect (Alternaria solani) was 0%. For the same molecule, the Observed effect (Botrytis cinerea [2]; 250 ppm) was 15%.
